Laboratory results as given in publication PMC7957516, “Biochemical Properties of Tyrosinase from Aspergillus terreus and Penicillium copticola; Undecanoic Acid from Aspergillus flavus, an Endophyte of Moringa oleifera, Is a Novel Potent Tyrosinase Inhibitor” (Molecules, 2021).
≈ marks a conversion by molar mass, not a printed value.

Legend:
[1] = molecular target: T1, tyrosinase from P. copticola; settings: 50 mM L-tyrosine, Tris-HCl pH 7.0, 37 °C; 2 h preincubation with inhibitor at 30 °C; P. copticola not named in the value sentence, inferred as the second of the two enzymes
T1 construct: gene TYR

[2] = molecular target: T2, tyrosinase from A. terreus; settings: 50 mM L-tyrosine, Tris-HCl pH 7.0, 37 °C; 2 h preincubation with inhibitor at 30 °C
T2 construct: gene TYR

O=c1cc(CO)occ1O [kojic acid]
IC50 [1]: 15.1 µg/mL (≈ 106 µM)
IC50 [2]: 21.5 µg/mL (≈ 151 µM)
